One data set has as its system effects of L-dopa. Put plainly: Potentiation of effects of L-dopa in mice pretreated with iproniazide. It is filed as in vivo, male mice. The note with it: Mus musculus, ip; i.p. one hour before L-dopa 100 mg/kg i.p.; iproniazide 75 mg/kg i.p. 18 hours before; read-out: ED50, dose which potentiates by 50% the L-dopa effects. The procedure:
The administration of L-dopa to mice pretreated 18 hours previously with iproniazide produced certain number of symptoms; muscular hypertonically, hyperactivity, agitation, crying, aggressiveness, salivation and exophthalmy. The intensity of these effects is potentiated by administration of an antidepressant one hour before the administration of L-dopa. Male mices received intraperitoneally 75 mg/kg of iproniazide 18 hours before the start of the test and the tested product was intraperitoneally administered in aqueous solution in increasing doses. One hour later, L-dopa was intraperitoneally administered at a dose of 100 mg/kg and the different symptoms were observed 15 and 30 minutes later. They were evaluated on a scale of 0 to 3 for each animal and the totals for each dose were determined.

A further data set in a line: Acute toxicity in mice. The note with it: mouse, in vivo, ip, intraperitoneal. In kind it is in vivo. The method, then:
(§1) The LD50 dose which kills 50% of mice after intraperitoneal administration of the tested compounds was determined 48 hours later and the results are reported in Table IV.

Another data set concerns effects of 5-HTP. As to the kind of experiment: Potentiation of effects of 5-HTP in mice. In kind it is in vivo. The note with it: Mus musculus, 1 h; i.p. one hour before 5-HTP 200 mg/kg i.p.; trembling observed for an hour; read-out: MAD (minimal active dose), potentiation of 5-HTP effects. The procedure:
The administration of 5-hydroxytryptophane (5-HTP) to mice pretreated with an antidepressant induces in the animals a particular behavior, namely the appearance of trembling. The tested products were administered intraperitoneally at increasing doses one hour before the intraperitoneal administration of 5-HTP at an dose of 200 mg/kg. The symptoms were observed every 15 minutes for an hour to determine the miminal active dose (MAD) of the test product and the results are reported in Table II.

Data set [1] concerns effects of monoamine oxidase inhibitor (nialamide). As to the kind of experiment: Potentiation of effects of monoamine oxidase inhibitor (nialamide) in mice. It is filed as in vivo. More on the design: key: Potentiation of the effects of nialamide for the tested product was expressed in increasing number of + signs for a determined dose in mg/kg; ++: Potentiation of the effects of nialamide for the tested product was expressed in increasing number of + signs for a determined dose in mg/kg; +++: Potentiation of the effects of nialamide for the tested product was expressed in increasing number of + signs for a determined dose in mg/kg. The note with it: nialamide 100 mg/kg i.p. 30 minutes before, actimetry 6 hours. The procedure:
The administration of a monoamine oxidase inhibitor to mice induces a hyperactive movement of the animals which is able to be potentiated by an antidepressant. Using the procedure of Carlsson et al [Brain Research, Vol. 12 (1969), p. 456], a dose of 100 mg/kg of nialamide was intraperitoneally administered to mice 30 minutes before the intraperitoneal administration of the tested product and the values of actimetric measurements were recorded every 30 minutes for 6 hours. Potentiation of the effects of nialamide for the tested product was expressed in increasing number of + signs for a determined dose in mg/kg.

Data set [2] concerns serotonine (5HT) uptake in synaptosomes. As to the kind of experiment: Inhibition of Serotonine uptake in vitro (brain synaptosomes). In kind it is biochemical, female rat 19 to 21 days old. The note with it: rat whole brain synaptosomes, 37° C, 5 minutes, 14 C-5HT 10^-7 M; read-out: I.C. 50, Test in vitro (inhibition of 14 C-5HT uptake). The method, then: The inhibition of serotonine (5HT) uptake was measured in impure synaptosomes prepared from the entire brain of a female rat 19 to 21 days old using the technique of Kannengiesser et al [Biochemical Pharmacology, Vol. 22, (1973) p. 73]. Diverse concentrations of the products were placed in an incubator with the preparation at 37° C for 5 minutes in the presence of 14 C-5HT at a concentration of 10^-7 M. The 50% inhibiting concentration (IC50), dose which inhibits by 50% the uptake of 14 C-5HT in the synaptosomes was determined graphically and the IC50 dose for the compounds is reported in Table V.

Data set [3] deals with uptake of 14 C-5HT in synaptosomes. Put plainly: Inhibition of Serotonine uptake in vivo (synaptosomes from treated rats). The arrangement: species or system female rats 19 to 21 days old; key: the activity was expressed in increasing number of + signs; ++: the activity was expressed in increasing number of + signs; +++: the activity was expressed in increasing number of + signs. The note with it: i.p. 5 to 20 mg/kg; brain removed after 30 minutes. The method, then: The tested products were intraperitoneally administered to groups of female rats 19 to 21 days old at doses of 5 to 20 mg/kg. After 30 minutes, the brain was removed and synaptosomes were prepared and placed in an incubator in the presence of 14 C-5HT as indicated in the previous test.

In a further data set the test system is mice. As to the kind of experiment: Acute toxicity in mice. In kind it is in vivo. The note with it: intraperitoneal, 48 hours. The method, then:
as §1

The results in this text go back to patent publication US4091115A, “7-Amino-benzocycloheptenes” (Roussel Uclaf, priority 1975, dated 1978).

Counter-ions that a name gives are not always drawn.

Take `CN(C)C1C=C(c2ccccc2)c2ccccc2CC1` (stereo not shown) [Example 3, 7-dimethylamino-9-phenyl-6,7-dihydro [5H] benzocycloheptene hydrochloride]: the ED50 (commonly the midpoint of the dose-response relation) with effects of L-dopa came to 2 mg/kg. For the same compound, the median lethal dose (LD50) (usually the dose at which mortality reaches 50%) at 48 h in “Acute toxicity in mice” came to 100 mg/kg.

Consider `CNC1C=C(c2ccccc2)c2ccccc2CC1` (stereo not shown) [Example 8, 7-methylamino-9-phenyl-6,7-dihydro [5H] benzocycloheptene hydrochloride], for which the ED50 with effects of L-dopa amounted to 5 mg/kg. The compound also gave an LD50 at 48 h in “Acute toxicity in mice” of 50 mg/kg.

On to `CNC1CCc2ccccc2C(c2ccccc2)C1` (stereo not shown) [Example 9, 7-methylamino-5-phenyl-6,7,8,9-tetrahydro [5H] benzocycloheptene hydrochloride], for which the 50% effective dose (ED50) with effects of L-dopa is 5 mg/kg. In “Acute toxicity in mice”, the LD50 at 48 h came out at 50 mg/kg. For the same compound, the minimal effective dose with effects of 5-HTP was found to be 20 mg/kg.

For the compound `CCNC1C=Cc2ccccc2CC1` (stereo not shown) [Example 12, 7-ethylamino-6,7-dihydro [5H] benzocycloheptene hydrochloride], the 50% effective dose (ED50) with effects of L-dopa was 10 mg/kg. Moreover, the LD50 at 48 h in “Acute toxicity in mice” stood at 75 mg/kg. Besides, the minimal effective dose with effects of 5-HTP was 20 mg/kg.

`CN1CCN(C2C=Cc3ccccc3CC2)CC1` (stereo not shown) [Example 13, 7-(4-methylpiperazin-1-yl)-6,7,-dihydro [5H] benzocycloheptene difumarate]: the ED50 in the data set on effects of L-dopa is 20 mg/kg. This compound showed an LD50 at 48 h in the data set “Acute toxicity in mice” of 250 mg/kg. In data set [1] (20 mg/kg i.p.), the Potentiation of nialamide result is recorded as “++”. Besides, in the data set with effects of 5-HTP, the minimal effective dose is 50 mg/kg.

Turning to `CNC1C=Cc2ccccc2CC1` (stereo not shown) [Example 6, 7-methylamino-6,7-dihydro [5H] benzocycloheptene hydrochloride], the ED50 with effects of L-dopa is 10 mg/kg. Further, in data set [2], the IC50 turned out to be 1900 nM. The compound further returned a 50% lethal dose (LD50) at 48 h in the data set “Acute toxicity in mice” of 75 mg/kg. Further, the “Test in vivo (inhibition of 14 C-5HT uptake)” value in data set [3] was “++”. The Potentiation of nialamide entry in data set [1] (5 mg/kg i.p.) is “++”; in data set [1] (20 mg/kg i.p.), “+++”. In the data set on effects of 5-HTP, the minimal effective dose came out at 5 mg/kg.

Consider `C=CCNC1C=Cc2ccccc2CC1` (stereo not shown) [Example 14, 7-allylamino-6,7-dihydro [5H] benzocycloheptene hydrochloride], for which the ED50 in the data set with effects of L-dopa turned out to be 20 mg/kg. Also, the median lethal dose (LD50) at 48 h in the data set “Acute toxicity in mice” turned out to be 150 mg/kg. In data set [1] (20 mg/kg i.p.), the Potentiation of nialamide result is “++”. For the same compound, the minimal effective dose with effects of 5-HTP stood at 50 mg/kg.

For `CN(C)C1CCc2ccccc2C(c2ccccc2)C1` (single isomer, unassigned) [Example 4, 7-dimethylamino-5-phenyl-6,7,8,9-tetrahydro [5H] benzocycloheptene hydrochloride], the 50% lethal dose (LD50) at 48 h in the data set “Acute toxicity in mice” was determined as 50 mg/kg.

Take `CN(C)C1C=Cc2ccccc2CC1` (stereo not shown) [Example 1, 7-dimethylamino-6,7-dihydro [5H] benzocycloheptene hydrochloride]: in the data set with effects of L-dopa, the median effective dose (ED50) is < 5 mg/kg. Moreover, the IC50 in data set [2] came to 510 nM. Besides, in the data set “Acute toxicity in mice”, the LD50 at 48 h was found to be 75 mg/kg. Also, the “Test in vivo (inhibition of 14 C-5HT uptake)” value in data set [3] is listed as “++”. Besides, the Potentiation of nialamide result in data set [1] (20 mg/kg i.p.) is recorded as “++”. Further, in the data set with effects of 5-HTP, the minimal effective dose amounted to 20 mg/kg.

On to `CN(C)C1CCc2ccccc2CC1` [Example 2, 7-dimethylamino-6,7,8,9-tetrahydro [5H] benzocycloheptene hydrochloride], for which the ED50 with effects of L-dopa was 5 mg/kg. In “Acute toxicity in mice”, this compound gave a 50% lethal dose (LD50) at 48 h of 100 mg/kg. In addition, the Potentiation of nialamide entry is reported as “+++” in data set [1] (20 mg/kg i.p.) and “+” in data set [1] (1-5 mg/kg i.p.).

With `CNC1C=Cc2cccc(Cl)c2CC1` (stereo not shown) [Example 11, 4-chloro-7-methylamino-6,7-dihydro [5H] benzocyclopheptene hydrochloride], the ED50 in the data set with effects of L-dopa was determined as 20 mg/kg. Also, the IC50 in data set [2] stood at 400 nM. In the data set “Acute toxicity in mice”, this compound yielded an LD50 at 48 h of 75 mg/kg. In data set [3], the “Test in vivo (inhibition of 14 C-5HT uptake)” value is “+”. Moreover, the values for the Potentiation of nialamide entry in data set [1] (5 mg/kg i.p.) and in data set [1] (20 mg/kg i.p.) were “+” and “+++”, respectively. The minimal effective dose in the data set on effects of 5-HTP came to 20 mg/kg.

With `CNC1C=Cc2cc(Cl)ccc2CC1.Cl` (stereo not shown) [Example 10 (2-chloro derivative), 2-chloro-7-methylamino-6,7-dihydro [5H] benzocycloheptene hydrochloride], in the data set with effects of L-dopa, the median effective dose (ED50) was < 5 mg/kg. The IC50 in data set [2] stood at 350 nM. The compound further yielded an LD50 at 48 h in “Acute toxicity in mice” of 75 mg/kg. The “Test in vivo (inhibition of 14 C-5HT uptake)” value in data set [3] is given as “+++”. The Potentiation of nialamide entry in data set [1] (1 mg/kg i.p.) and in data set [1] (5 mg/kg i.p.) was “+++” throughout. In addition, the minimal effective dose in the data set with effects of 5-HTP was 10 mg/kg.

For the compound `CNC1CCc2ccccc2CC1` [Example 7, 7-methylamino-6,7,8,9-tetrahydro [5H] benzocycloheptene hydrochloride], the ED50 in the data set with effects of L-dopa came out at 10 mg/kg. Besides, in “Acute toxicity in mice”, the median lethal dose (LD50) at 48 h was found to be 100 mg/kg. The Potentiation of nialamide entry in data set [1] (5 mg/kg i.p.) is “+”; in data set [1] (20 mg/kg i.p.), “++”.

For the compound `CN(C)C1CCc2ccccc2C(c2ccccc2)C1` (single isomer, unassigned) [Example 5, 7-dimethylamino-5-phenyl-6,7,8,9-tetrahydro [5H] benzocycloheptene hydrochloride], the ED50 in the data set on effects of L-dopa was 2 mg/kg. Besides, in data set [2], the IC50 stood at 150 nM. In addition, the LD50 in the data set on mice came to 50 mg/kg. For the same compound, the “Test in vivo (inhibition of 14 C-5HT uptake)” value in data set [3] is recorded as “+++”. Also, the Potentiation of nialamide entry is “+” in data set [1] (1 mg/kg i.p.) and “+++” in data set [1] (20 mg/kg i.p.). Also, the minimal effective dose in the data set with effects of 5-HTP was 10 mg/kg.
